{"source": "patent US8491891B2", "about": "“Human beta-glucuronidase mutants with elevated enzymatic activity under physiological conditions and method for identifying such” (Academia Sinica, priority 2008, dated 2013)", "molecules": {"B1": {"name": "S2: human beta-glucuronidase variant V159M, T545S, E595L, T599L, SEQ ID NO: 8 (protein)", "chain": "AAQPALQGGMLYPQESPSRECKELDGLWSFRADFSDNRRRGFEEQWYRRPLWESGPTVDMPVPSSFNDISQDWRLRHFVGWVWYEREVILPERWTQDLRTRVVLRIGSAHSYAIVWVNGVDTLEHEGGYLPFEADISNLVQMGPLPSRLRITIAINNTLTPTTLPPGTIQYLTDTSKYPKGYFVQNTYFDFFNYAGLQRSVLLYTTPTTYIDDITVTTSVEQDSGLVNYQISVKGSNLFKLEVRLLDAENKVVANGTGTQGQLKVPGVSLWWPYLMHERPAYLYSLEVQLTAQTSLGPVSDFYTLPVGIRTVAVTKSQFLINGKPFYFHGVNKHEDADIRGKGFDWPLLVKDFNLLRWLGANAFRTSHYPYAEEVMQMCDRYGIVVIDECPGVGLALPQFFNNVSLHHHMQVMEEVVRRDKNHPAVVMWSVANEPASHLESAGYYLKMVIAHTKSLDPSRPVTFVSNSNYAADKGAPYVDVICLNSYYSWYHDYGHLELIQLQLATQFENWYKKYQKPIIQSEYGAESIAGFHQDPPLMFTEEYQKSLLEQYHLGLDQKRRKYVVGELIWNFADFMTLQSPLRVLGNKKGIFTRQRQPKSAAFLLRERYWKIANETRYPHSVAKSQCLENSPFTSVD", "modifications": "Laboratory generated variant, S2, based upon the human beta-glucuronidase"}}, "key": {"[1]": {"tested_on": "EJ/mβG cells", "assay": "Sensitivity of EJ/mβG cells to CPT-11, SN-38, SN-38G (3H-thymidine incorporation)", "conditions": "read-out: IC50 (cytotoxicity); EJ/mβG cells, 24 h exposure, pH not stated"}, "[2]": {"assay": "Serum concentrations of CPT-11, SN-38 and SN-38G after CPT-11 administration"}, "[3]": {"assay": "Intratumoral concentrations of CPT-11, SN-38 and SN-38G after CPT-11 treatment (SPE-HPLC)", "protocol": "Tumors were collected 2, 8 and 24 h after CPT treatment, immediately dispersed in ice-cold acidic methanol (methanol: water: perchloric acid=20:20:1), and homogenized 60 sec on an Ultraturax tissue homogenizer at 20,000 rpm. The samples were clarified by centrifugation at 15,000 g for 5 min at 4° C. Supernatants were diluted with 0.1 M KH2PO4 and then separated by SPE-HPLC on a μBondapack column with 27% acetonitrile in 0.1 M potassium phosphate buffer pH=2.6. […] These three analytes were quantified by comparison with standard curves generated with analyte concentrations ranging from 2.0 pg to 200 ng."}, "[4]": {"tested_on": "EJ human bladder carcinoma cells", "assay": "Sensitivity of EJ cells to CPT-11, SN-38, SN-38G (3H-thymidine incorporation)", "conditions": "read-out: IC50 (cytotoxicity), 24 h exposure, pH not stated"}, "[5]": {"tested_on": "EJ tumor xenografts", "assay": "Anti-tumor effect of CPT-11 on EJ xenografts", "assay_type": "in vivo, Beige-SCID mice", "conditions": "EJ tumors, dose of 10 mg/kg, i.v. on two consecutive days", "protocol": "(§1) Three to four month old Beige-SCID female mice were used in this study. The mice were maintained under SPF conditions and were fed a standard laboratory diet with free access to food and water, under artificial circadian rhythm. EJ or EJ/mβG cells were injected into the mice subcutaneously in their right flank to form tumor xenografts."}, "[6]": {"tested_on": "EJ/mβG tumor xenografts", "assay": "Anti-tumor effect of CPT-11 on EJ/mβG xenografts", "assay_type": "in vivo, Beige-SCID mice", "conditions": "EJ/mβG tumors, dose of 10 mg/kg, i.v. on two consecutive days", "protocol": "as §1"}, "[7]": {"tested_on": "EJ human bladder cancer cells", "assay": "Prodrug activation of SN-38G by enzyme, 3H-thymidine incorporation", "assay_type": "cell-based", "conditions": "100 nM SN-38G", "protocol": "(§2) The prodrug activation activity of the human beta-glucuronidase variants was determined as follows. EJ human bladder cancer cells were incubated with graded concentrations (see FIGS. 3B and 3C) of human β-glucuronidase variants in RPMI (pH 6.8) containing either 10 μM HAMG or 100 nM SN-38G for 24 hours. The cells were further incubated for 24 hours in fresh medium before incorporation of ^3H-thymidine into cellular DNA was measured following the procedure described below.\n(§3) Purified recombinant human beta-glucuronidase and its variants with defined concentrations were mixed with 10 μM HAMG or 100 nM SN-38G and the mixture was added to 5000 EJ human bladder cancer cells in 200 μl complete medium at pH 6.8 for 24 h. The cells were washed and incubated in fresh medium for 24 h and then pulsed for 16 h with ^3H-thymidine (1 μCi/well). The cells were harvested and the radioactivity was measured in a TopCount Microplate Scintillation Counter (Packard, Meriden, Conn.). Results are expressed as percent inhibition of ^3H-thymidine incorporation into cellular DNA in comparison to untreated cells."}, "[8]": {"assay": "Kinetic values (Km, kcat) of soluble recombinant human β-glucuronidase and variants", "assay_type": "biochemical", "protocol": "Recombinant His-tagged wild-type human β-glucuronidase and its variants (soluble) were produced in and purified from stable 3T3 fibroblast lines, following the method described above also the method described in Wu et al., Biotechnol Appl Biochem 40:167-172 (2004).\nThe pH-dependent enzyme activities of the above-mentioned recombinant human beta-glucuronidase and variants were measured in triplicate with 0.1 mM ELF97 β-D-glucuronide at 37° C. for 30 minutes at a defined pH ranging from 3-10 in a beta-glucuronidase reaction buffer (50 mM Bis-Tris, 50 mM triethanol amine, 100 mM acetic acid, 0.1% BSA). The reaction was quenched by adding an equal volume of a stop buffer (2 M Tris-HCl, 0.8 M sodium bicarbonate, pH 8). The fluorescence of ELF97 was measured in a Gemini EM microplate spectrofluorometer (Molecular Device, Sunnyvale, Calif.) at excitation/emission wavelengths of 355/555 nm. Kinetic values for human beta-glucuronidase substrate hydrolysis were determined by diluting ELF97 β-D-glucuronide (2 mM) in a pH 4.5 or pH 7.0 beta-glucuronidase reaction buffer 1:1 with defined concentrations of human beta-glucuronidase in 200 μl. Fluorescence was immediately measured under thermal control at 37° C. for 8-10 min. The measurement was repeated using the same amount of enzyme at different substrate concentrations in an optimal range. The acquired readings were converted to product concentration based on preestablished standard curves. Double reciprocal plots were used to determine Km and kcat. Kinetic assays were performed at least 3 times and mean values were calculated. The stability of recombinant human beta-glucuronidase variants was carried out by measuring their enzymatic activity at time 0 and again after incubating 5 μg purified enzymes in PBS (containing 0.5 mg/ml BSA) at 37° C. for 14 days. The enzymatic activities of the human beta-glucuronidase variants were measured in triplicate with 0.5 mM 4-methylumbelliferyl β-D-glucuronide at 37° C. for 15 minutes at pH 7.0 in β-glucuronidase reaction buffer. The reaction was terminated by adding an equal volume of a stop buffer (1 M glycine, 0.5 M sodium bicarbonate, pH 11) and the fluorescence was measured at excitation/emission wavelengths of 355/460 nm in a microplate spectrofluorometer."}, "[9]": {"tested_on": "EJ human bladder cancer cells", "assay": "Prodrug activation of HAMG by enzyme, 3H-thymidine incorporation", "assay_type": "cell-based", "conditions": "10 μM HAMG", "protocol": "as §2, §3"}, "[10]": {"assay": "Relative activity of membrane-tethered human β-glucuronidase variants on 3T3 cells by flow cytometry (FL4/FL1)", "assay_type": "cell-based", "conditions": "membrane-tethered enzyme, pH 7.0, substrate ELF97 β-D-glucuronide", "protocol": "The 3T3 cell libraries mentioned above were screened by FACS analysis for cells that express human β-glucuronidase variants with elevated enzymatic activity. 10^7 3T3 cells expressing membrane-bound human β-glucuronidase variants were washed and suspended in 0.4 ml BSA/HBSS (5.4 mM KCl, 0.3 mM Na2HPO4, 0.4 mM KH2PO4, 4.2 mM NaHCO3, 1.3 mM CaCl2, 0.5 mM MgCl2, 0.6 mM MgSO4, 137 mM NaCl, 5.6 mM D-glucose, pH 7.4) containing 0.5% bovine serum albumin (BSA) and 20 μg/ml 7G8-FITC for 30 min at 4° C. Cells were then washed and incubated with 25, 50 or 100 μM ELF97 β-D-glucuronide at defined pH values in 50 mM Bis-Tris, 25 mM glucose, 85.6 mM NaCl, 5.4 mM KCl, 0.6 mM MgSO4, 1.3 mM CaCl2) at 37° C. for 10 min. The cells were washed with ice-cold 0.5% BSA/HBSS and suspended in 0.5% BSA/HBSS containing 5 μg/ml propidium iodide (Sigma). Cells were then sorted on a FACSVantage DiVa (Becton, Dickinson and Company, Franklin Lakes, N.J.) equipped with an Enterprise IIC argon laser for dual excitation at 488 and 351-364 nm. Dead cells (propidium iodide positive, high FL3 fluorescence) were gated out before 7G8-FITC immunofluorescence was detected at excitation/emission wavelengths of 488/515 nm (FL1) and ELF97 was detected at excitation/emission wavelengths of 351/530 nm (FL4). […] The sorted cells were cultured for 4-10 days for sequential rounds of cell sorting or RNA extraction. Flow cytometer data was analyzed using Flowjo (Tree star, Ashland, Oreg.).\nIndependent 3T3 clones (5×10^7) in library EP2 mentioned above were immunofluorescence stained with 7G8-FITC and reacted with ELF97 β-D-glucuronide at pH 7.0. Sixteen individual cell clones were isolated after three rounds of sorting and the human β-glucuronidase genes were sequenced. […] Table 1 below lists amino acid substitutions in five exemplary variants and their relative enzymatic activities."}, "[11]": {"assay": "Beta-glucuronidase activity of fusion proteins at pH 7.0", "assay_type": "biochemical", "conditions": "pH 7.0, 0.5 mM substrate, 30 minutes, 37° C.", "protocol": "Next, the beta-glucuronidase activity of the fusion proteins was measured by adding 0.5 mM 4-methylumbelliferyl β-D-glucuronide in a beta-glucuronidase reaction buffer (50 mM Bis-Tris, 50 mM triethanol amine, 100 mM acetic acid, 100 ng/ml bovine serum albumin, pH 7.0) for 30 minutes at 37° C. The reaction was terminated by adding an equal volume of stop buffer (1 M glycine, 0.5 M sodium bicarbonate, pH 11). The fluorescence of 4-MU was measured at excitation/emission wavelengths of 355/460 nm in a Gemini EM microplate spectrofluorometer (Molecular Device, Sunnyvale, Calif.). […] See also FIG. 9."}, "[12]": {"conditions": "24 h after CPT-11 10 mg/kg i.v."}}, "data": [{"molecule": "CCc1c2c(nc3ccc(OC(=O)N4CCC(N5CCCCC5)CC4)cc13)-c1cc3c(c(=O)n1C2)COC(=O)[C@]3(O)CC", "note": "[CPT-11]", "values": [{"measurement": "IC50", "setting": "[1]", "value": "~2100", "unit": "nM"}, {"measurement": "Serum levels in mice bearing EJ versus EJ/mβG tumor", "setting": "[2]; 2 h after CPT-11 administration", "value": "similar"}, {"measurement": "Serum concentrations in mice bearing EJ versus EJ/mβG tumor", "setting": "[2]; 8 h or 24 h after CPT-11 administration", "value": "no significant differences"}, {"measurement": "Intratumoral concentrations in EJ versus EJ/mβG tumors", "setting": "[3]; 2, 8 and 24 h", "value": "identical"}, {"measurement": "Concentration in EJ xenografts", "setting": "[3]; 2 h after CPT-11 10 mg/kg i.v.", "value": "1350 ± 200", "unit": "ng drug/g tumor"}, {"measurement": "Concentration in EJ/mβG xenografts", "setting": "[3]; 2 h after CPT-11 10 mg/kg i.v.", "value": "1500 ± 230", "unit": "ng drug/g tumor"}, {"measurement": "Concentration in EJ xenografts", "setting": "[3]; 8 h after CPT-11 10 mg/kg i.v.", "value": "87 ± 17", "unit": "ng drug/g tumor"}, {"measurement": "Concentration in EJ/mβG xenografts", "setting": "[3]; 8 h after CPT-11 10 mg/kg i.v.", "value": "77 ± 178", "unit": "ng drug/g tumor"}, {"measurement": "Concentration in EJ xenografts", "setting": "[3]; [12]", "value": "0.58 ± 0.09", "unit": "ng drug/g tumor"}, {"measurement": "Concentration in EJ/mβG xenografts", "setting": "[3]; [12]", "value": "0.63 ± 0.11", "unit": "ng drug/g tumor"}, {"measurement": "IC50", "setting": "[4]", "value": "~2100", "unit": "nM"}, {"measurement": "Delay of tumor growth", "setting": "[5]", "value": "did not significantly delay"}, {"measurement": "Delay of tumor growth", "setting": "[6]", "value": "significantly delayed"}]}, {"molecule": "B1", "values": [{"measurement": "Fold improvement in prodrug activation over wild type (SN-38G)", "setting": "[7]; pH 6.8", "value": 11, "unit": "fold"}, {"measurement": "EC50 of enzyme for killing of EJ cells with SN-38G", "setting": "[7]; pH 6.8, 24 h", "value": 0.0084, "unit": "µg/mL"}, {"measurement": "Km", "setting": "[8]; pH 4.5, 37° C.", "value": "8.1 ± 0.8", "unit": "µM"}, {"measurement": "kcat", "setting": "[8]; pH 4.5, 37° C.", "value": "107 ± 7", "unit": "s⁻¹"}, {"measurement": "Km", "setting": "[8]; pH 7.0, 37° C.", "value": "35 ± 3", "unit": "µM"}, {"measurement": "kcat", "setting": "[8]; pH 7.0, 37° C.", "value": "42 ± 4", "unit": "s⁻¹"}, {"measurement": "kcat/Km at pH 7.0, fold greater than kcat/Km of wild type at pH 4.5", "setting": "[8]; variant at pH 7.0 vs wild type at pH 4.5", "value": "about 2 fold"}, {"measurement": "Fold more effective than wild type (HAMG activation)", "setting": "[9]; pH 6.8", "value": 9, "unit": "fold"}, {"measurement": "EC50 of enzyme for killing of EJ cells with HAMG", "setting": "[9]; pH 6.8, 24 h", "value": 2.7, "unit": "µg/mL"}, {"measurement": "Relative activity (FL4/FL1 normalized to wild-type human β-glucuronidase)", "setting": "[10]", "value": 65}, {"measurement": "Enzymatic activity compared with wild-type hβG", "setting": "[11]", "value": "significantly greater"}]}]}
